The record followed here is patent publication US8901118B2, “Compounds and methods for kinase modulation, and indications therefor” (Plexxikon Inc., priority 2010, dated 2014).

The target in assay [1] is T1, BCR-KIT BaF3 cells (Homo sapiens, UniProt P10721).
T1 construct: fused on or other part: P11274 (Breakpoint cluster region protein)
The assay is described as follows: BaF3 BCR-KIT cell proliferation assay (ATPlite). To be noted: read-out: Inhibition of Cell Proliferation IC50, BCR/BaF3 Kit. The class given is cell-based. The method, then:
(§1) Compounds are assessed in a variety of cell based assays. For example BaF3 cells engineered with any of BCR-FMS, BCR-KIT, BCR-FLT3, BCR-NTRK1, BCR-NTRK2, and BCR-NTRK3, are used in cell proliferation assays to assess inhibitory activity of Fms, Kit, Flt-3, TrkA, TrkB, and TrkC, respectively. An MV-4-11 (leukemia) cell proliferation assay is used to assess inhibitory activity in Flt-3, and SKNSH (human neuroblastoma) cell proliferation assay is used to assess efficacy of Fms/Trk inhibitors. Additional cells may be assayed similarly to assess the efficacy of Fms/Trk inhibitors, such as MiaPaCa (human pancreatic cancer) and Capan-1 (human pancreatic carcinoma) cells. Reagent and assay conditions are as follows: • BaF3 cells: • Maintained in RPMI containing 10% FBS, 1% PenStrep, 1% NEAA, and 1% L-Glutamine, supplemented with 1 mg/mL G418 and 5% WEHI-CM (or recombinant murine IL-3). • Confluent cells are split 1:50 to 1:100 every 3-4 days. • MV-4-11 cells: • Maintained in Iscove's Modified Dulbecco's Medium containing 10% FBS. • Confluent cells are split 1:4 every 3-4 days. • SKNSH cells: RPMI containing 10% FBS. On day 1, cells are counted, then centrifuged in a conical tube for 5 minutes at 1000 rpm. The supernatant is removed and cells are re-suspended as follows: • BaF3: resuspend in growth media +1 mg/mL G418 (without WEHFIL-3) to 2×10^5 cells/mL. • MV-4-11: resuspend in growth media to 5×10^5 cells/mL. • SKNSH: resuspend in growth media to 2×10^4 cells/mL. The cells are plated (50 μL, 150 μL for SKNSH cells) in each well of a 96-well dish (Corning 3610) and incubated at 37° C. in 5% CO2 overnight, cells plated to a final concentration of cells as follows: • BaF3: 10,000 cells per well. • MV-4-11: 25,000 cells per well. • SKNSH: 3,000 cells per well. On day 2, compound at a maximum concentration of 5 mM is serially diluted 1:3 for a total of 8 point titration with DMSO as a control. A 1 μL aliquot of each dilution point is added to 249 μL growth media and 50 μL is added to a well containing cells, providing 10 μM compound for the maximum concentration point. The cells are incubated for 3 days at 37° C. in 5% CO2. For SKNSH cells, a 0.75 μL aliquot of appropriate dilution in DMSO is added to 150 μL of cells. On day 5, ATPlite 1 step Luminescence Assay System (Perkin Elmer #6016739) is brought to room temperature along with the cell cultures. ATPlite is added to each well as follows: • BaF3: 25 μL per well. • MV-4-11: 40 μL per well. • SKNSH: 20 μL per well. The cells are incubated at room temperature for 10 minutes, then luminescence is read on Safire reader. The measured luminescence correlates directly with cell number, such that the reading as a function of compound concentration is used to determine the IC50 value.
(§2) It is understood that the results of these assays may vary as assay conditions are varied. Inhibition levels determined under the conditions described herein represent a relative activity for the compounds tested under the specific conditions employed. The cell based assays are likely to show variability due to the complexity of the system and the sensitivity thereof to any changes in the assay conditions. […] Results for compounds that are tested and show substantially no inhibition below the highest tested concentration are represented as “-” in the tables below. In some instances, the compounds were not tested in all of the assays, or assay results were not valid, as indicated by NA in the tables below.

Assay [2] has as its target T2, BCR-NTRK1 BaF3 cells (Homo sapiens, UniProt P04629).
T2 construct: fused on or other part: P11274 (Breakpoint cluster region protein)
The assay is described as follows: BaF3 BCR-NTRK1 cell proliferation assay (ATPlite). The class given is cell-based. To be noted: read-out: Inhibition of Cell Proliferation IC50, BCR/BaF3 TrkA. Here is the method: as §1, §2

The target of assay [3] is T3, BCR-NTRK3 BaF3 cells (Homo sapiens, UniProt Q16288).
T3 construct: fused on or other part: P11274 (Breakpoint cluster region protein)
T3 sequence (Q16288 whole entry, the tested form may be a part): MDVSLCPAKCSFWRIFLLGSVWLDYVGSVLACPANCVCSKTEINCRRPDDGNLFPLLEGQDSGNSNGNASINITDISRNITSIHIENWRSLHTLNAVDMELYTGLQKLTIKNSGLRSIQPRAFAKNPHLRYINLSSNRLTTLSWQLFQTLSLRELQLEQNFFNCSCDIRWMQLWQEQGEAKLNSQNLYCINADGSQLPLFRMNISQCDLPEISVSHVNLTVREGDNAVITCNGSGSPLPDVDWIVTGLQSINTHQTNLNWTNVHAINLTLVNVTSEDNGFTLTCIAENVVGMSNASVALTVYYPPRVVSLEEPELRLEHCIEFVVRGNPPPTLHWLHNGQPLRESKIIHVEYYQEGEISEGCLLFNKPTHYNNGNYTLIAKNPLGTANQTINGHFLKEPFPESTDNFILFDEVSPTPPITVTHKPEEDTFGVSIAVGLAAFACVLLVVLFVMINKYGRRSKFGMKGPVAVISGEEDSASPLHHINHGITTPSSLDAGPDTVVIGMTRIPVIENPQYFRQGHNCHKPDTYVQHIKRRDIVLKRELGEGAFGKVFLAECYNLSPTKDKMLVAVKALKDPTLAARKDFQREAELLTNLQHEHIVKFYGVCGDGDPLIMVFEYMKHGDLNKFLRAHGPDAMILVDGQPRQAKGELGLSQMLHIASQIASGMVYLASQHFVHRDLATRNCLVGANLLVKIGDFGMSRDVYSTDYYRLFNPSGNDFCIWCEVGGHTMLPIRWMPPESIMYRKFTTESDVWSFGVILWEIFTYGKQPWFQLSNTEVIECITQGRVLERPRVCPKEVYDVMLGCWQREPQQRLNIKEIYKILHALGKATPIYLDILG
The assay is described as follows: BaF3 BCR-NTRK3 cell proliferation assay (ATPlite). As to conditions: read-out: Inhibition of Cell Proliferation IC50, BCR/BaF3 TrkC. In kind it is cell-based. Here is the method:
as §1, §2

Assay [4] concerns the target CYP3A4(BFC) (Homo sapiens, UniProt P08684). The assay is described as follows: CYP3A4(BFC) inhibition. In kind it is in vitro ADME. As to conditions: CYP3A4, substrate BFC; read-out: Cyp IC50 3A4(BFC). Here is the method:
CYP (Cytochrome P450) enzymes are the major drug metabolizing enzymes present in the liver. The inhibition of CYP enzyme activity (IC50) for each of CYP1A2, CYP2C19, CYP2C9, CYP2D6, CYP3A4(BFC) and CYP3A4(BQ) is determined for compounds, where inhibition of metabolism of a known substrate leads to a decrease in the fluorescence of the metabolized product. The fluorescence of the product is monitored as a function of compound concentration. Compounds are dissolved in DMSO to a concentration of 100 mM. These are diluted 1 μL into 82 μL of acetonitrile. An 11 μL aliquot of this solution is then added to 204 μL of cofactor mix (1.3% NADPH Regeneration system Solution A, 1.04% NADPH Regeneration system Solution B from BD Biosciences, 5% acetonitrile and 0.05% DMSO). These are then serially diluted 1:1 (160 μL to 160 μL co-factor mix) for a total of 10 points. A 10 μL aliquot of this final mixture is dispensed into 384 well assay plates and incubated for 10 minutes at 37° C. […] Assay plates are incubated at 37° C. (CYP1A2-15 min; CYP2C9-45 min; CYP2C19, 2D6 and 3A4-30 min) and read in a Tecan Safire 2 plate reader (CYP1A2, 2C19 and 3A4 409 ex/460 em; CYP2C9 and 2D6 409 ex/530 em). The signal versus compound concentration is used to determine the IC50. The enzymes and substrates for this assay are obtained from BD Biosciences.

T1 sequence (P10721 589-937): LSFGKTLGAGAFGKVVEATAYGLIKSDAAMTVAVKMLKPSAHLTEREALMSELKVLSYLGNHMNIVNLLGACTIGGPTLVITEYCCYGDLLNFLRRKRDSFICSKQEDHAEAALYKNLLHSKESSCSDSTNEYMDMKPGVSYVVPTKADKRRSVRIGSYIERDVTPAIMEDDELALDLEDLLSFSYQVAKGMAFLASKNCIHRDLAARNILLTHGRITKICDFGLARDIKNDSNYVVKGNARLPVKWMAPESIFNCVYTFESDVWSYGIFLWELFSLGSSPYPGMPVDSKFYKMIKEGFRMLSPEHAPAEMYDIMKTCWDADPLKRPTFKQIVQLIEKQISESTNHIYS
CYP3A4(BFC), sequence (P08684 whole entry): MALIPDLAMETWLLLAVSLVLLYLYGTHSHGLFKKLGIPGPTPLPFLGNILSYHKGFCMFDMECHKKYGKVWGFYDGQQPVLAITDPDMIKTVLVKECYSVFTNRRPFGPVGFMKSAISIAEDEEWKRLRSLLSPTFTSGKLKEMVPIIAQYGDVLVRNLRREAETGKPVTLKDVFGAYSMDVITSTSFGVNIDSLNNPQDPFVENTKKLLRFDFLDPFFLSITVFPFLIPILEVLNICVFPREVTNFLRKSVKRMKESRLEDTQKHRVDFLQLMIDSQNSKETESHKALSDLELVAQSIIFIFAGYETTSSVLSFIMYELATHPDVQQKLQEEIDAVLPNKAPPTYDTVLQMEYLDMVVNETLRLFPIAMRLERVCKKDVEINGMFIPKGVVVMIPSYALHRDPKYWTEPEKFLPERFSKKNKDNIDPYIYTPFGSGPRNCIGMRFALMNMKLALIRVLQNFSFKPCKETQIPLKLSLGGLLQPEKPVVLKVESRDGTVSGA
T2 sequence (P04629 510-781): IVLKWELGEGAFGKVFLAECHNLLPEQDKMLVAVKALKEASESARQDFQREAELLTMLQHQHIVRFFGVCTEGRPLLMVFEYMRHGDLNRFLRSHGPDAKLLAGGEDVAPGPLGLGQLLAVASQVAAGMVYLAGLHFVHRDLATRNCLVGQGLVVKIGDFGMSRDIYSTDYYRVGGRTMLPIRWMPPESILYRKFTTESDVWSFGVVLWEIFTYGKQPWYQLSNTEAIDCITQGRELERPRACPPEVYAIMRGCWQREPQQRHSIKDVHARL

On to `CCNc1ncnc2[nH]cc(C(=O)c3ccc(Nc4ccc(C5CC5)nc4)nc3F)c12` [Compound P-4060, [6-[(6-cyclopropyl-3-pyridyl)amino]-2-fluoro-3-pyridyl]-[4-(ethylamino)-7H-pyrrolo[2,3-d]pyrimidin-5-yl]methanone], for which the IC50 in assay [1] was below 100 nM; in assay [2], below 10 nM; in assay [3], below 10 nM; in assay [4] it was above 10000 nM.
As to `O=C(c1ccc(NC2CCC(F)(F)CC2)nc1F)c1c[nH]c2ncnc(NCC(F)(F)F)c12` [Compound P-4061, [6-[(4,4-difluorocyclohexyl)amino]-2-fluoro-3-pyridyl]-[4-(2,2,2-trifluoroethylamino)-7H-pyrrolo[2,3-d]pyrimidin-5-yl]methanone], the IC50 is above 1000 nM in assay [1], below 100 nM in assay [2], below 10 nM in assay [3] and above 10000 nM in assay [4].
On the same counts, the results for `O=C(c1ccc(NC2CCC(F)(F)CC2)nc1F)c1c[nH]c2ncnc(NC3CC3)c12` [Compound P-4062, [4-(cyclopropylamino)-7H-pyrrolo[2,3-d]pyrimidin-5-yl]-[6-[(4,4-difluorocyclohexyl)amino]-2-fluoro-3-pyridyl]methanone] are below 1000 nM, below 10 nM, below 10 nM and above 10000 nM.
For the molecule `CNc1ncnc2[nH]cc(C(=O)c3ccc(NC4CCC(F)(F)CC4)nc3F)c12` [Compound P-4063, [6-[(4,4-difluorocyclohexyl)amino]-2-fluoro-3-pyridyl]-[4-(methylamino)-7H-pyrrolo[2,3-d]pyrimidin-5-yl]methanone], the IC50 was below 100 nM in assay [1], below 10 nM in assay [2], below 10 nM in assay [3] and above 10000 nM in assay [4].
As for `CCc1ccc(Nc2ccc(C(=O)c3c[nH]c4ncnc(NCC(C)(C)O)c34)c(F)n2)cn1` [Compound P-4064, [6-[(6-ethyl-3-pyridyl)amino]-2-fluoro-3-pyridyl]-[4-[(2-hydroxy-2-methyl-propyl)amino]-7H-pyrrolo[2,3-d]pyrimidin-5-yl]methanone], the IC50 in assay [1] was below 100 nM; in assay [2] it was below 100 nM; in assay [3] it was below 10 nM; in assay [4] it was above 10000 nM.
Turning to `CCc1ccc(Nc2ccc(C(=O)c3c[nH]c4ncnc(N)c34)c(F)n2)cn1` [Compound P-4065, (4-amino-7H-pyrrolo[2,3-d]pyrimidin-5-yl)-[6-[(6-ethyl-3-pyridyl)amino]-2-fluoro-3-pyridyl]methanone], the IC50 is below 100 nM in assay [1], below 100 nM in assay [2], below 10 nM in assay [3] and above 10000 nM in assay [4].
In the case of `COc1ccc(Nc2ccc(C(=O)c3c[nH]c4ncnc(NC(C)C)c34)c(F)n2)cn1` [Compound P-4066, [2-fluoro-6-[(6-methoxy-3-pyridyl)amino]-3-pyridyl]-[4-(isopropylamino)-7H-pyrrolo[2,3-d]pyrimidin-5-yl]methanone], the IC50 in assay [1] is below 10 nM; in assay [2], below 10 nM; in assay [3], below 10 nM; in assay [4] it was above 10000 nM.
Regarding `COc1ccc(Nc2ccc(C(=O)c3c[nH]c4ncnc(NCC5CC5)c34)c(F)n2)cn1` [Compound P-4067, [4-(cyclopropylmethylamino)-7H-pyrrolo[2,3-d]pyrimidin-5-yl]-[2-fluoro-6-[(6-methoxy-3-pyridyl)amino]-3-pyridyl]methanone], the IC50 in assay [1] was below 100 nM; in assay [2], below 10 nM; in assay [3] it was below 10 nM; in assay [4], above 10000 nM.
Consider `CCCNc1ncnc2[nH]cc(C(=O)c3ccc(Nc4ccc(OC)nc4)nc3F)c12` [Compound P-4068, [2-fluoro-6-[(6-methoxy-3-pyridyl)amino]-3-pyridyl]-[4-(propylamino)-7H-pyrrolo[2,3-d]pyrimidin-5-yl]methanone], for which the IC50 is below 100 nM in assay [1], below 10 nM in assay [2], below 10 nM in assay [3] and above 10000 nM in assay [4].
Regarding `COc1ccc(Nc2ccc(C(=O)c3c[nH]c4ncnc(N5CCCCC5)c34)c(F)n2)cn1` [Compound P-4069, [2-fluoro-6-[(6-methoxy-3-pyridyl)amino]-3-pyridyl]-[4-(1-piperidyl)-7H-pyrrolo[2,3-d]pyrimidin-5-yl]methanone], the IC50 in assay [1] was above 1000 nM; in assay [2], above 1000 nM; in assay [3], above 1000 nM; in assay [4] it was 5000 to 10000 nM.
As for `COc1ccc(Nc2ccc(C(=O)c3c[nH]c4ncnc(N5CCOCC5)c34)c(F)n2)cn1` [Compound P-4070, [2-fluoro-6-[(6-methoxy-3-pyridyl)amino]-3-pyridyl]-(4-morpholino-7H-pyrrolo[2,3-d]pyrimidin-5-yl)methanone], the IC50 in assay [1] was above 1000 nM; in assay [2] it was above 1000 nM; in assay [3], above 1000 nM; in assay [4] it was above 10000 nM.
As to `COc1ccc(Nc2ccc(C(=O)c3c[nH]c4ncnc(NCc5ccc(C(F)(F)F)nc5)c34)c(F)n2)cn1` [Compound P-4071, [2-fluoro-6-[(6-methoxy-3-pyridyl)amino]-3-pyridyl]-[4-[[6-(trifluoromethyl)-3-pyridyl]methylamino]-7H-pyrrolo[2,3-d]pyrimidin-5-yl]methanone], the IC50 in assay [1] was below 100 nM; in assay [2], below 100 nM; in assay [3], below 10 nM; in assay [4] it was above 10000 nM.
For `COc1ccc(Nc2ccc(C(=O)c3c[nH]c4ncnc(N[C@@H](C)c5ccc(F)cc5)c34)c(F)n2)cn1` [Compound P-4072, [2-fluoro-6-[(6-methoxy-3-pyridyl)amino]-3-pyridyl]-[4-[[(1S)-1-(4-fluorophenyl)ethyl]amino]-7H-pyrrolo[2,3-d]pyrimidin-5-yl]methanone], the IC50 in assay [1] was below 1000 nM; in assay [2], below 10 nM; in assay [3], below 10 nM; in assay [4] it was above 10000 nM.
